In patent US20240336593A1, “Compound Having Antitumor Activity And Use Thereof” (lnnovStoneTherapeutics Limited, priority 2020, published 2024):
pIC50: −log10 of the molar value.

Target: PRMT5 (Homo sapiens (Human), UniProt O14744)
Test: Inhibitory activity against PRMT5 enzyme by radioisotopic method
Format: biochemical
Details: PRMT5 5 nM, [3H]-SAM 0.3 μM, polypeptide substrate GL-27 100 nM, room temperature
Description: Test Example 1. Test on the inhibitory activity of the compounds of the invention against PRMT5 enzyme by radioisotopic method
Test method: A 1× enzyme reaction buffer (10 mM Tris 8.0 (Sigma, Cat. No. T2694-1L), 0.01% Tween-20 (Sigma, Cat. No. P2287-100 ML), 1 mM DTT (Sigma, Cat. No. D0632-10G)) was prepared. PRMT5 (Active Motif, Cat. No. 31921) and [3H]—SAM (PerkinElmer, Cat. No. NET155V001MC) were added to the 1×enzyme reaction buffer, to prepare a 25/15× mixed solution (PRMT5 final concentration: 5 nM, [3H]—SAM final concentration: 0.3 μM). 15 μL of this solution was transferred into a 384-well microplate (Corning 384-well Polypropylene Storage Microplates, Cat. No. 3657) with various concentrations of the compounds (DMSO final concentration 1%), and incubated at room temperature for 60 minutes. A polypeptide substrate, GL-27 (Ac-[…]-K (Biotin) (GL Biochem, Cat. No. 342095)), was added into the 1×enzyme reaction buffer to prepare a 25/10× substrate solution. Then 10 μL of the polypeptide substrate solution (final concentration of the polypeptide substrate: 100 nM) was added, a reaction was stirred at room temperature for 120 minutes, and then 5 μL 6× ice cold SAM (Sigma, Cat. No. A7007-100 MG) solution was added to stop the reaction (SAM final concentration: 0.125 mM). 25 µL of the reaction mixture was transferred into a FlashPlate (Streptavidin FlashPlate HTS PLUS, High Capacity, 384-well, Perkin Elmer, Cat. No. SMP410A001PK), and incubated at room temperature for 1 h. After washed three times with distilled water containing 0.1% Tween-20, the microplate was read on a MicroBeta reader for CPM data (Counts Per Minute). […] Then the inhibition rate Inh % (Y) corresponding to each concentration (X) was input in EXCEL, and the IC50 value (the half maximal inhibitory concentration) of each compound was calculated with the XLfit plug-in according to the built-in four-parameter fitting equation Y=Bottom+(Top-Bottom)/(1+(IC50/X)[…]).

Sequence of PRMT5 (O14744 whole entry): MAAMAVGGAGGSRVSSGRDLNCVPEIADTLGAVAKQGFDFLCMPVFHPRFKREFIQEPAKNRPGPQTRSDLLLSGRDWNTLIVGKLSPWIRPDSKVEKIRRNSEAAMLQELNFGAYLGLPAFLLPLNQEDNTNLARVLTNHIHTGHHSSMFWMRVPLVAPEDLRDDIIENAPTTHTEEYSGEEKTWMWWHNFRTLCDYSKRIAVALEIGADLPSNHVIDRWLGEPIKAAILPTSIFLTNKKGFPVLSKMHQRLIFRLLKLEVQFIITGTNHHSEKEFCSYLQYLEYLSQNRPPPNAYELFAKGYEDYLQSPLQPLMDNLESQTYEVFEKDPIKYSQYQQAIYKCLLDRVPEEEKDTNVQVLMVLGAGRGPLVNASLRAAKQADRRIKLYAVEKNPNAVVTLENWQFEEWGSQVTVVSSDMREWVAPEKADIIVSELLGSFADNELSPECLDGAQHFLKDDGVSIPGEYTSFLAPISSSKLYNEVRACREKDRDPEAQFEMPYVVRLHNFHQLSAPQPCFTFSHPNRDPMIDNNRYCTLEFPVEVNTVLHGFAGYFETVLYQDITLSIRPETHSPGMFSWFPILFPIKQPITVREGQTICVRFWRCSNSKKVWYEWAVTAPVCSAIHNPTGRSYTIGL
Sequence of PRMT5 (Q9BQA1 whole entry partner): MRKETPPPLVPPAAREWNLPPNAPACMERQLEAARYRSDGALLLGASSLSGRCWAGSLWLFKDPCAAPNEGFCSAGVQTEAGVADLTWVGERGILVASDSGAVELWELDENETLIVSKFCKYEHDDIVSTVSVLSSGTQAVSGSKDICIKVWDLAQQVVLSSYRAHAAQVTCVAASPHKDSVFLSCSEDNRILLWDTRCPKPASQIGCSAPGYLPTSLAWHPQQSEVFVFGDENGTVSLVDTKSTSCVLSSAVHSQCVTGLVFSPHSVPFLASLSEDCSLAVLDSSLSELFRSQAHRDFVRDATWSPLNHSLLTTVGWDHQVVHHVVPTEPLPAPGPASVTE

pIC50, > 7.00:
CC(=O)N1CCC(Nc2cc(C(=O)N3CC[C@H](N4CCc5ccccc5C4)[C@@H](O)C3)nc(Cl)n2)CC1 (relative stereo) [Example 117, trans-1-(4-((2-chloro-6-(4-(3,4-dihydroisoquinolin-2(1H)-yl)-3-hydroxypiperidine-1-carbonyl)pyrimidin-4-yl)amino)piperidin-1-yl)ethan-1-one]
N#CC1CCC(Nc2cc(C(=O)N3CC[C@H](N4CCc5ccccc5C4)[C@@H](O)C3)ncn2)CC1 (stereo partly drawn) [Example 138, 4-((6-(trans-4-(3,4-dihydroisoquinolin-2(1H)-yl)-3-hydroxypiperidine-L-carbonyl)pyrimidin-4-yl)amino)cyclohexane-1-carbonitrile]
CC(=O)N1CCC(Nc2cc(C(=O)N3CC[C@@H](N4CCc5ccccc5C4)[C@H](O)C3)nc([S+]([O-])C(C)C)n2)CC1 (stereo partly drawn) [Example 157, 1-(4-((6-((3R,4R)-4-(3,4-dihydroisoquinolin-2(1H)-yl)-3-hydroxypiperidine-1-carbonyl)-2-(isopropylsulfinyl)pyrimidin-4-yl)amino)piperidin-1-yl)ethan-1-one]
O[C@@H]1CN(c2cc(Nc3cccc(N4CCCC4)c3)ncn2)CC[C@H]1N1CCc2ccccc2C1 (relative stereo) [Example 67, trans-4-(3,4-dihydroisoquinolin-2(1H)-yl)-1-(6-((3-(pyrrolidin-1-yl)phenyl)amino)pyrimidin-4-yl)piperidin-3-ol]
CC(=O)N1CCC(Oc2cc(C(=O)N3CC[C@@H](N4CCc5ccccc5C4)[C@H](O)C3)ncn2)CC1 (relative stereo) [Example 142, trans-1-(4-((6-(4-(3,4-dihydroisoquinolin-2(1H)-yl)-3-hydroxypiperidine-1-carbonyl)pyrimidin-4-yl)oxy)piperidin-1-yl)ethan-1-one]
O[C@H]1CN(c2cc(Nc3ccccc3Cl)ncn2)CC[C@@H]1N1CCc2ccccc2C1 (relative stereo) [Example 54, trans-4-(3,4-dihydroisoquinolin-2(1H)-yl)-1-(6-((2-chlorophenyl)amino)pyrimidin-4-yl)piperidin-3-ol]
CC(=O)N1CCC(Nc2cc(C(=O)N3CC[C@H](N4CCc5ccccc5C4)[C@@H](O)C3)nc(-c3ccncc3)n2)CC1 [Example 139]
CC(=O)N1CCCC(Nc2cc(C(=O)N3CC[C@H](N4CCc5ccccc5C4)[C@@H](O)C3)ncn2)C1 (relative stereo) [Example 106, trans-1-(3-((6-(4-(3,4-dihydroisoquinolin-2(1H)-yl)-3-hydroxypiperidine-1-carbonyl)pyrimidin-4-yl)amino)piperidin-1-yl)ethan-1-one]
O=C(C(=O)N1CCC2(CC1)CC(Nc1cc(C(=O)N3CC[C@H](N4CCc5ccccc5C4)[C@@H](O)C3)ncn1)C2)C1CC1 (relative stereo) [Example 98, 1-cyclopropyl-2-(2-((6-(trans-4-(3,4-dihydroisoquinolin-2(1H)-yl)-3-hydroxypiperidine-1-carbonyl)pyrimidin-4-yl)amino)-7-azaspiro[3.5]nonan-7-yl)ethane-1,2-dione]
O[C@H]1CN(c2cc(Nc3cccc(Cl)c3)ncn2)CC[C@@H]1N1CCc2ccccc2C1 (relative stereo) [Example 43, trans-1-(6-((3-chlorophenyl)amino)pyrimidin-4-yl)-4-(3,4-dihydroisoquinolin-2(1H)-yl)piperidin-3-ol]
CC(=O)N1CCC(Nc2cc(C(=O)N3CC[C@H](N4CCc5ccccc5C4)[C@@H](O)C3)c(C(F)(F)F)cn2)CC1 (relative stereo) [Example 102, trans-1-(4-((4-(4-(3,4-dihydroisoquinolin-2(1H)-yl)-3-hydroxypiperidine-1-carbonyl)-5-(trifluoromethyl)pyridin-2-yl)amino)piperidin-1-yl)ethan-1-one]
COc1cccc(Nc2cc(N3CC[C@H](N4CCc5ccccc5C4)[C@@H](O)C3)ncn2)c1 (relative stereo) [Example 47, trans-1-(6-((3-methoxyphenyl)amino)pyrimidin-4-yl)-4-(3,4-dihydroisoquinolin-2(1H)-yl)piperidin-3-ol]
CNC(=O)c1cccc(Nc2cc(C(=O)N3CC[C@H](N4CCc5ccccc5C4)[C@@H](O)C3)ncn2)c1 (relative stereo) [Example 134, trans-3-((6-(4-(3,4-dihydroisoquinolin-2(1H)-yl)-3-hydroxypiperidine-1-carbonyl)pyrimidin-4-yl)amino)-N-methylbenzamide]
CC(=O)N1CCC(Nc2cccc(C(=O)N3CC[C@H](N4CCc5ccccc5C4)[C@@H](O)C3)c2)CC1 (relative stereo) [Example 28, trans-1-(4-((3-(4-(3,4-dihydroisoquinolin-2(1H)-yl)-3-hydroxypiperidine-1-carbonyl)phenyl)amino)piperidin-1-yl)ethan-1-one]
O[C@H]1CN(c2cc(Nc3ccccc3-c3ccccc3)ncn2)CC[C@@H]1N1CCc2ccccc2C1 (relative stereo) [Example 66, trans-1-(6-([1,1′-biphenyl]-2-ylamino)pyrimidin-4-yl)-4-(3,4-dihydro-isoquinolin-2(1H)-yl)piperidin-3-ol]
COc1nc(NC2CCN(C(C)=O)CC2)cc(C(=O)N2CC[C@H](N3CCc4ccccc4C3)[C@@H](O)C2)n1 (relative stereo) [Example 120, 1-(4-((6-(trans-4-(3,4-dihydroisoquinolin-2(1H)-yl)-3-hydroxypiperidine-1-carbonyl)-2-methoxypyrimidin-4-yl)amino)piperidin-1-yl)ethan-1-one]
CC(C)(C)c1cccc(Nc2cc(N3CC[C@H](N4CCc5ccccc5C4)[C@@H](O)C3)ncn2)c1 (relative stereo) [Example 37, trans-1-(6-((3-t-butylphenyl)amino)pyrimidin-4-yl)-4-(3,4-dihydroisoquinolin-2(1H)-yl)piperidin-3-ol]
C#Cc1nc(NC2CCN(C(C)=O)CC2)cc(C(=O)N2CC[C@@H](N3CCc4ccccc4C3)[C@H](O)C2)n1 [Example 150, 1-(4-((6-((3R,4R)-4-(3,4-dihydroisoquinolin-2(1H)-yl)-3-hydroxypiperidine-1-carbonyl)-2-ethynylpyrimidin-4-yl)amino)piperidin-1-yl)ethan-1-one]
CC(=O)N1CCC(Nc2cc(C(=O)N3CC[C@@H](N4CCc5ccccc5C4)[C@H](O)C3)nc(-c3ccc(C)s3)n2)CC1 [Example 153, 1-(4-((6-((3R,4R)-4-(3,4-dihydroisoquinolin-2(1H)-yl)-3-hydroxypiperidine-1-carbonyl)-2-(5-methylthiophen-2-yl)pyrimidin-4-yl)amino)piperidin-1-yl)ethan-1-one]
O[C@@H]1CN(c2cc(Nc3ccccc3N3CCCC3)ncn2)CC[C@H]1N1CCc2ccccc2C1 (relative stereo) [Example 80, trans-4-(3,4-dihydroisoquinolin-2(1H)-yl)-1-(6-((2-(pyrrolidin-1-yl)phenyl)amino)pyrimidin-4-yl)piperidin-3-ol]
O[C@@H]1CN(c2cc(Nc3cccc(Cl)c3Cl)ncn2)CC[C@H]1N1CCc2ccccc2C1 [Example 89]
CC(C)(C)c1ccccc1Nc1cc(N2CC[C@H](N3CCc4ccccc4C3)[C@@H](O)C2)ncn1 (relative stereo) [Example 56, trans-4-(3,4-dihydroisoquinolin-2(1H)-yl)-1-(6-((2-t-butylphenyl)amino)pyrimidin-4-yl)piperidin-3-ol]
C=Cc1nc(NC2CCN(C(C)=O)CC2)cc(C(=O)N2CC[C@@H](N3CCc4ccccc4C3)[C@H](O)C2)n1 [Example 152, 1-(4-((6-((3R,4R)-4-(3,4-dihydroisoquinolin-2(1H)-yl)-3-hydroxypiperidine-1-carbonyl)-2-vinylpyrimidin-4-yl)amino)piperidin-1-yl)ethan-1-one]
O=C(c1cc(NC2CCN(CC(F)(F)F)CC2)ncn1)N1CC[C@H](O)[C@@H](N2CCc3ccccc3C2)CC1 [Example 127]
COc1ccccc1Nc1cc(N2CC[C@H](N3CCc4ccccc4C3)[C@@H](O)C2)ncn1 (relative stereo) [Example 57, trans-4-(3,4-dihydroisoquinolin-2(1H)-yl)-1-(6-((2-methoxyphenyl)amino)pyrimidin-4-yl)piperidin-3-ol]
